Experimental data: patent US8552013B2, “Heterocyclic compounds based on N6-substituted adenine, methods of their preparation, their use for preparation of drugs, cosmetic preparations and growth regulators, pharmaceutical preparations, cosmetic preparations and growth regulators containing these compounds” (USTAV Experimentalni Botaniky Akademie Ved Ceske Republiky, priority 2001, dated 2013)
Entries after “also recorded” stand apart in the source; their conditions may differ.

Key:
[1] = test system: senescent human skin fibroblasts; test: Morphology of senescent cells; type: cell-based
Method: (§1) All experiments were performed on early and mid passage cultures (about 20 to 40% lifespan completed) of normal human adult skin fibroblast line; designated ASF-2 & Senetek cell line (about 10-90% lifespan completed); designated as SF20. In order to check the effects of test compounds on senescent cells, late passage cells with more than 95% lifespan completed were used. ASF-2 and SF20 cell lines were established from a mammary skin biopsy obtained from a young, non-smoking and healthy […] at the time of breast reduction operation. Normal culture conditions of medium (DMEM) containing antibiotics, 10% foetal calf serum, and incubation at 37° C. with 95% humidity were used. The effects of the test chemicals were determined in the following conditions:
Senescent human skin fibroblasts were treated with various doses of para-topolin to see if this treatment could reverse age-related alterations in their morphology. […] The cells progressively became heterogeneous with large and flattened appearance.

human skin fibroblasts [2] = test: Cell survival, MTT assay; type: cell-based; conditions: 3 days
Method: Cell survival after exposure to various doses was measured with the 3-(4,5 dimethylthiazol-2-yl)-2,5-diphenyltetrazolium bromide (MTT) assay. About 5,000 cells were seeded per well in a 96-well plate 24 h before the experiment. Cells were then treated with various doses of the compound to be tested. The wells were washed in Hank's and new medium was added. After three days, MTT (Sigma, M2128) was added at 0.5 mg/ml in medium. After 4 h, MTT was removed and isopropanol and HCl were added to dissolve the MTT crystals for 12-16 h. The absorbance at 595 nm was measured.

human skin fibroblasts [3] = test: beta-galactosidase staining of treated skin fibroblasts; type: cell-based; conditions: short-term growth treatment
[4] = test system: human adult skin fibroblasts; test: Short-term growth of human skin fibroblasts (cell counts, Giemsa); type: cell-based
Method: as §1
Short-term growth experiments were performed using 24-well tissue culture plates (growth area 1.9 cm^2). Freshly prepared cell suspensions from mass cultures of ASF-2 cells maintained in our labs were used. About 10,000 cells were seeded into 6 sets of 24-well plates. The cells were allowed to attach and stabilize for 24 hr in normal culture medium to achieve various final concentrations (range 40 to 500 μM). Culture medium was changed with the addition of test chemicals twice a week. The numbers of cells were counted after different days of treatment in 2 wells from each concentration of the test chemical, by following the normal method of cell trypsinization and counting using a Coultercounter. The third well in each category was fixed by cold methanol and stained with Giemsa stain for permanent record and for photography. The experiment was carried on for until the cultures became fully confluent and no further growth was possible.

proteasome = test: Proteasomal chymotrypsin-like activity in cell extracts of treated cells; type: cell-based, human; conditions: 40, 80 and 200 μM
Method: Chymotrypsin-like activity in cell extracts prepared from treated and untreated cells was determined by in vitro degradation of oligopeptides by the proteasome.

[5] = test system: lysosomes of fibroblast cells; test: Lysosomal activity, neutral red uptake; type: cell-based, human
Method: Neutral Red is preferentially taken up into the lysosomes of the cell. Fibroblast cells are maintained in culture and exposed to test compounds over a range of concentrations. The cultures are visually examined after 72 hours, and the number of viable cells and/or the total cell protein content determined, after 72 hours exposure, by the Neutral Red Uptake method. Advantage of Neutral Red assay is that it detects only viable cells. Any chemical having a localized effect upon the lysosomes will, therefore, result in an artificially low (or possibly high) reflection of cell viability and cell number. This factor does, however, make the system useful to detect those compounds which selectively affect the lysosomes, especially when it is used in conjunction with other tests capable of determining cell number.
The NR assay has been applied to evaluation and ranking the cytotoxicity of a spectrum of compounds. Individual wells of a 96-well tissue culture microtiter plate were inoculated with 0.2 ml of the appropriate media containing cells (usually 3×10^3 cells). After 1 to 2 days of incubation, the media were removed and replaced with unamended (control) medium or with medium amended with varied concentrations of the compound to be tested. After 3 days of exposure to the compound, media were removed and replaced with media containing 0.001% NR. The assay plate was then returned to the incubator for another 3 h to allow for uptake of the supravital dye into the lysosomes of viable cells. Thereafter, the media were removed and the cells were rapidly washed with 0.5% formaldehyde-1% CaCl2 followed by 0.2 ml of a solution of 1% acetic acid-50% ethanol to extract the dye from the cells. After 10 min at room temperature and a brief but rapid agitation on a microtiter plate shaker, the plates were transferred to a microplate spectrophotometer equipped with a 540-nm filter to measure the absorbance of the extracted dye.
The toxicities of the various compounds were compared with those of the control cultures by computing the data obtained.

[6] = test system: senescent human skin fibroblasts; test: Actin staining of senescent cells (FITC-Phalloidin); type: cell-based; conditions: after 3 days; meta 40 μM
Excerpt: Actin staining: The pattern of cytoskeletal actin staining was studied by staining the cells with florescent ligand FITC-labelled Phalloidin, using a fluorescence microscope

[7] = test system: senescent human skin fibroblasts; test: Numbers of surviving senescent cells (Coulter counter); type: cell-based
Method: Equal numbers of senescent cells were seeded in separate flasks and were treated with different concentrations of para-topolin. Cell numbers were determined by using a Coulter counter after trpsinization and resuspension of cells after 7 and 14 days of treatment.
Equal numbers of senescent cells were seeded in separate flasks and were treated with different concentrations of ortho-topolin. Cell numbers were determined by using a Coulter counter after trypsinisation and resuspension of cells, after 7 and 14 days of treatment.

human skin fibroblasts [8] = test: Cell attachment of human skin fibroblasts; type: cell-based
Method: as §1, with “conditions: […]” for “conditions:”

human skin fibroblasts [9] = test: Series of experiments on short-term effects on human skin fibroblasts, conclusion; type: cell-based; conditions: para at a dose of 40 μM
Method: as §1
The experiments were performed to determine the effects of short-term treatment of ortho-topolin, meta-topolin, and para-topolin on cell attachment, survival, growth, apoptosis, actin cytoskeletal pattern, lysosomal activity, proteasomal activity and morphology of human skin fibroblasts in culture.

HOS = test: Calcein AM cytotoxicity, HOS; type: cell-based; conditions: Homo sapiens, HOS, 72 h
[10] = test system: Rosa hybrida 'Pailin' explants; test: Early shoot senescence of tissue cultured roses; type: in vivo; conditions: 10 μM in medium
Method: Rosa hybrida ‘Pailin’ (a cut rose) was cultured in 350 ml vessels with a screw on polycarbonate lid. Each culture vessel contained 100 ml autoclaved medium (120° C., 20 min). The cultures were maintained at 23±2° C. under a 16 h photoperiod at 40 μM m^−2 s^−1 PAR. The basal medium (BMR) contained Murashige and Skoog (1962) macroelements, microelements and vitamins, 36.7 mg/l NaFeEDTA, 50 mg/l NaFeEDDHA, 100 mg/l […] myo-inositol, 30 g/l sucrose, 100 mg/l glycine, 50 mg/l calcium pantothenate, 100 mg/l L-glutamine and 7 g/l agar-agar. This medium was supplemented with 10 μM BA, mT and mMeOBAP. The last 2 cytokinins were filter sterilised and added after autoclaving the medium in the vessels. The control medium didn't contain any cytokinin. After a culture period of 6 weeks, scoring senescence symptoms was started.

[11] = test system: Rosa hybrida (pot rose cultivar) explants; test: In vitro and post vitro shoot multiplication and rooting of rose; type: in vivo
Method: The aim of this experiment was to test whether the new compounds are of practical use in tissue culture practice. The multiplication rate was investigated and the post vitro effects on rooting were examined. Rosa hybrida (pot rose cultivar) was cultured in 350 ml vessels with a screw on polycarbonate lid. Each culture vessel contained 100 ml autoclaved medium (120° C., 20 min). The cultures were maintained at 23±2° C. under a 16 h photoperiod at 40 μM m^−2 s^−1 PAR. The basal medium (BMR) contained Murashige and Skoog (1962) macroelements, microelements and vitamins, 95 μM NaFeEDTA, 555 μM myo-inositol, 111 mM sucrose, 1.332 mM glycine, 684 μM L-glutamine and 7 g/l agar. This medium was supplemented with 10 μM BA, mT, oMeOBAP or mMeOBAP (compound no. 14 and 15, respectively). The control medium didn't contain any cytokinin. After a culture period of 8 weeks, the number of induced shoots per explant was determined, as well as root number/explant and total root length/explant. The roots were removed and the explants (shoot clusters) were planted in unfertilised peat. After four weeks of acclimatising in a fog unit, root number and root length was determined.

[12] = Ex vitro, four weeks of acclimatising

Structure (SMILES): Oc1ccc(CNc2ncnc3nc[nH]c23)cc1 [para-topolin, 6-(4-hydroxybenzylamino)purine]
- appearance of senescent cells on longer treatment ([1]; 14 days, ortho and meta 80 μM and above): began to shrink and die
- appearance of senescent cells ([1]; after 7 days of treatment (para: 7 days and 14 days; meta: low concentrations)): subtle differences
- reduction in cell survival (human skin fibroblasts [2]; 200-500 μM): 15-25%
- dose until which not cytotoxic / no toxic effect on survival (MTT) (human skin fibroblasts [2]; range 0.01-500 μM): 100 µM
- number of prematurely senescent cells, beta-galactosidase staining (human skin fibroblasts [3]): did not show any increase
- Cell growth (summary) ([4]; 40 μM): not affected
- Cell growth lower ([4]; 40 μM): 10%
- reduction of cell growth ([4]; 80 μM): over 40%
- appearance of dermal cells, microscopic examination (summary) ([4]; 40 and 80 μM): Healthy appearances of the cells were maintained
- Cell growth (summary) ([4]; 80, 200 and 500 μM): reduced
- appearance of dermal cells, microscopic examination (summary) ([4]; 200 and 500 μM): toxic effects with enlargement in cell sizes
- appearance of cells ([4]; 200 and 500 μM, eleven days): large in appearance, irregularly arranged and few in numbers
- dose over which cytotoxicity of cells was seen ([4]; Giemsa pictures after eleven days): > 80 µM
- Cellular growth at higher concentrations ([4]; para 200 to 500 μM after 11 days, ortho 200 and 400 μM after 7 days, meta 400 μM): almost a total inhibition
- proteasomal activity (chymotrypsin-like), removal of oxidized and abnormal proteins (proteasome): slight improvement; also recorded: observed in a dose dependent manner
- neutral red staining pattern of cells ([5]; 40 μM-500 μM): autophagy
- reduction in the macro-molecular turn over rate ([5]; 80 & 200 μM): 10-15%
- actin staining pattern in senescent cells [6]: no obvious differences
- growth of senescent cells ([7]; 200 μM, 7 to 14 days): no further growth of the cells was observed
- numbers of surviving senescent cells ([7]; 7 to 14 days of treatment): tolerant to para-topolin until 80 μM
- Percent of cells attached, effect in words (human skin fibroblasts [8]; 6 hours, para 40 μM to 1 mM, ortho 40 to 400 μM, meta 40 to 200 μM): not affected to any significant extent
- Overall cell attachment improved (summary) (human skin fibroblasts [8]; para at 40, 80, 100, 160, 250 and 500 μM): 10-40%
- conclusion on short-term effects on human skin fibroblasts (human skin fibroblasts [9]): beneficial anti-aging effects

Structure (SMILES): c1ccc(CNc2ncnc3nc[nH]c23)cc1 [BAP, 6-benzylaminopurine, reference compound]
- IC50 (HOS): > 167 µM
- relative number of dead plants in relation to culture time [10]: looks like a sigmoid curve
- shoot multiplication and rooting, in words ([11]; 10 μM): high shoot multiplication rate, but the shoots rooted badly
- Root number per plant [11, 12]: 0.6
- Total root length per plant [11, 12]: 1.1 cm
- Flower number per explant ([11]; In vitro, 10 μM, 8 weeks): 0.00
- Number of new shoots per explant ([11]; In vitro, 10 μM, 8 weeks): 3.8
- Root number per explant ([11]; In vitro, 10 μM, 8 weeks): 0.0
- Total root length per explant ([11]; In vitro, 10 μM, 8 weeks): 0.0 cm
